Laboratory results from ChEMBL document CHEMBL5465560, “Selectivity Literature for EUbOPEN Chemogenomic Library” (2024).

How the values were obtained:
[1] = biological target: T1, SNF-related serine/threonine-protein kinase (Homo sapiens) (UniProt Q9NRH2); assay: Selectivity interaction (ActivX KiNativ screen (kinase selectivity in THP-1 cell lysates)) EUB0000639a SNRK; type: subcellular; settings: lysate, at 0.01 µM
T1 sequence (whole entry): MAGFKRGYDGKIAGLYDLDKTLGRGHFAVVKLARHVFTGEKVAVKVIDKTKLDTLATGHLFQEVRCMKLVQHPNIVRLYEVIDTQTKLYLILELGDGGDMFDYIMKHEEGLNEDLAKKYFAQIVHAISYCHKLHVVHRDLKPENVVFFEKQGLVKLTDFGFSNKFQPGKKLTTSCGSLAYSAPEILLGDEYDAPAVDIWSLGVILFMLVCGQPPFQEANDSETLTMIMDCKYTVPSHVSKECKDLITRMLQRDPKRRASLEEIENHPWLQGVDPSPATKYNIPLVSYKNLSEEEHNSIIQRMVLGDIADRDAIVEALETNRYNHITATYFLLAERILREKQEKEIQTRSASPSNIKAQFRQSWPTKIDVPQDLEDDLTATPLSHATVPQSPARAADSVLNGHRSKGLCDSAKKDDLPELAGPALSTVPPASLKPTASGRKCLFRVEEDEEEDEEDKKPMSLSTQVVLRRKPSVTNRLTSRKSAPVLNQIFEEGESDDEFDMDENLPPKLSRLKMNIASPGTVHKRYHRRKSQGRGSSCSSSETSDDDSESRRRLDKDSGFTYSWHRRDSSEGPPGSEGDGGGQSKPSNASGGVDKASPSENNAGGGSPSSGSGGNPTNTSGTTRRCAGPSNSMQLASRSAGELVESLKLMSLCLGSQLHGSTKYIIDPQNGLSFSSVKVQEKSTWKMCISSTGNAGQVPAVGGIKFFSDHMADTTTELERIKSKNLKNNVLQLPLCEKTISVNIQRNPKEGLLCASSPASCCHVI

[2] = biological target: T2, Serine/threonine-protein kinase LATS1 (Homo sapiens) (UniProt O95835); assay: Selectivity interaction (KinomeScan (DiscoverX)) EUB0001619a LATS1; settings: at 1 µM
T2 sequence (whole entry): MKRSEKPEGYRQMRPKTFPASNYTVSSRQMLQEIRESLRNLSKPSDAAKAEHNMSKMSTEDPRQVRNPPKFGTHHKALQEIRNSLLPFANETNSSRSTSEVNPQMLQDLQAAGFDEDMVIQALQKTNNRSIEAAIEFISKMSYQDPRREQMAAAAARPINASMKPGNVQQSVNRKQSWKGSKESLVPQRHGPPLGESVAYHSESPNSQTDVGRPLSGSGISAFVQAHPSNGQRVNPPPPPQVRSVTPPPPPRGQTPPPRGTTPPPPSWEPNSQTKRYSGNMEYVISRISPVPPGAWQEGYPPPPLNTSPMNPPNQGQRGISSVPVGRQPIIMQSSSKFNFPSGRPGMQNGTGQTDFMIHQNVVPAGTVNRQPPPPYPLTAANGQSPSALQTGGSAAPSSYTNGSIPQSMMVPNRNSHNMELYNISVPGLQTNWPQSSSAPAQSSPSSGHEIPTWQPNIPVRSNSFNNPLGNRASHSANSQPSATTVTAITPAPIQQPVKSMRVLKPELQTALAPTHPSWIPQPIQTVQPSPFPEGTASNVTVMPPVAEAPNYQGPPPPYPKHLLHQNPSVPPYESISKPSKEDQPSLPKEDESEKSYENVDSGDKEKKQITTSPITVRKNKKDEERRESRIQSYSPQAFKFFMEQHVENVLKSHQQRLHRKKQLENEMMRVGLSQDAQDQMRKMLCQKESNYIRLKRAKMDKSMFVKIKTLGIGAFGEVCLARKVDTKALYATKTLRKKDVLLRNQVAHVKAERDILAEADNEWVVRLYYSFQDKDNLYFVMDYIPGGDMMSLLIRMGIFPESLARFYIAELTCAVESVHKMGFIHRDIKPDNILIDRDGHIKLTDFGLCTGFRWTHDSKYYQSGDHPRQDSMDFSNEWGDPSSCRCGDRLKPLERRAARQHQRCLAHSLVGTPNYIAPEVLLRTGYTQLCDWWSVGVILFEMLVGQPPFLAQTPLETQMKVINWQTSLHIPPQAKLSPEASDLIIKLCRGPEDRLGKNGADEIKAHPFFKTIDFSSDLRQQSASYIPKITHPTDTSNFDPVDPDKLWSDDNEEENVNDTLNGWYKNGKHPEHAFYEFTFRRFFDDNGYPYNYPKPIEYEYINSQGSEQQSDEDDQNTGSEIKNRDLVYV

| SMILES | % of inhibition [1] | % of control [2] |
| --- | --- | --- |
| CC[C@@H]1[C@H](F)C(=O)N[C@@H]1COc1nccc2cc(C(N)=O)c(OC)cc12 [ZIMLOVISERTIB] | 0.6% | – |
| N#Cc1cccc(-c2c[nH]c3ncnc(N4CCOCC4)c23)c1 | – | 100% |
